How the values were obtained:
[1] = system: DCTN1-RET fusion gene-expressing NIH/3T3 cells; assay: In vitro cell growth assay, 3-dimensional cell culture, intracellular ATP luminescence (CellTiter-Glo 2.0); details: for GI50: Mus musculus, NIH3T3
[2] = biological target: T1, phosphorylated RET in DCTN1-RET fusion gene-expressing NIH/3T3 cells (Homo sapiens, UniProt P07949); assay: Inhibition of RET phosphorylation in DCTN1-RET fusion gene-expressing cells (western blotting); format: cell-based; details: 1000, 100 and 10 nmol/L, 1 hour incubation, FIG. 9
T1 construct: expressed in transfected cells; the other entry of the earlier key: Dctn1 (O08788, Dynactin subunit 1)
T1 sequence (P07949 with tags, fused parts or gaps with the stated changes): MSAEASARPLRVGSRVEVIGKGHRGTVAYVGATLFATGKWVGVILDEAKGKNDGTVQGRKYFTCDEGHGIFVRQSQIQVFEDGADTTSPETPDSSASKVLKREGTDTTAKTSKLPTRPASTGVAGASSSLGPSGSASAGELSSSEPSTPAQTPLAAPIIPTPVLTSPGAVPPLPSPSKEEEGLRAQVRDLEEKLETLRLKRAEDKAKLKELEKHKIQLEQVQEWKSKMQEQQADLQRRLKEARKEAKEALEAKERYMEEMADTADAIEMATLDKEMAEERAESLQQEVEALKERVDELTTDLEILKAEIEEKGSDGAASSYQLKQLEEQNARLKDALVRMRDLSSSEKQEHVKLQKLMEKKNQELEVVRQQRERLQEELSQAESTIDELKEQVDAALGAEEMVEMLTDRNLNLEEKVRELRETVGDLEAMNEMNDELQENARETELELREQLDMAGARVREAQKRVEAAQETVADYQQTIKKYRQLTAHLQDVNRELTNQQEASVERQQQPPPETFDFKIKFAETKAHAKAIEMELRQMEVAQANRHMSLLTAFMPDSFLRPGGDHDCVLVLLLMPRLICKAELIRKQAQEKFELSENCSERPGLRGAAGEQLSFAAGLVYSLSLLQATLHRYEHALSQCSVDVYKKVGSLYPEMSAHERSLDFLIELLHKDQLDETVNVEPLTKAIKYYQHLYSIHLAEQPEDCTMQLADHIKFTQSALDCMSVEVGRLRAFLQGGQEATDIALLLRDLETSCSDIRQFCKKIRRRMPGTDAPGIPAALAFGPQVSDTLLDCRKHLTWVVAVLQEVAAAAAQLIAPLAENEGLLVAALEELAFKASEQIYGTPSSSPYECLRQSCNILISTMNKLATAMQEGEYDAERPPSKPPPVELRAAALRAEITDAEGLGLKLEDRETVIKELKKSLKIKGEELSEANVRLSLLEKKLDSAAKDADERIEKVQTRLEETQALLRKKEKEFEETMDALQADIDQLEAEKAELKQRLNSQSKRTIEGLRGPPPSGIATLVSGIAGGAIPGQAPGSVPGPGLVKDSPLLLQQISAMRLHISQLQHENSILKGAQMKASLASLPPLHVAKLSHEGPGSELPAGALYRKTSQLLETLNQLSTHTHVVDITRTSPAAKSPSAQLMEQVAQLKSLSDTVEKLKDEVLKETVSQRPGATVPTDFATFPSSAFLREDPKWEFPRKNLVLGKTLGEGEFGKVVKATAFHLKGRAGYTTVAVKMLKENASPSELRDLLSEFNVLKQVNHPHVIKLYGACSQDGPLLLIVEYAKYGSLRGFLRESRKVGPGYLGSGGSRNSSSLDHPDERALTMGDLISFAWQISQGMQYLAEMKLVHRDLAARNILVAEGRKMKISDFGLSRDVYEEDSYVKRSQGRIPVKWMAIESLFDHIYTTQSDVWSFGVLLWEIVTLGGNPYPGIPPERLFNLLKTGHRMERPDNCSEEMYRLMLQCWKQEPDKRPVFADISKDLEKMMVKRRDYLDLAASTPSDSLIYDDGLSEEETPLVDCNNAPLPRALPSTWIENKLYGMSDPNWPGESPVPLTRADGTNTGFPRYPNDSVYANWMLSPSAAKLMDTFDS
Experimental: The expression of DCTN1-RET fusion protein in the obtained DCTN1-RET fusion gene-expressing NIH/3T3 cells was confirmed by western blotting. Specifically, the medium was removed from the culture flask, followed by washing with PBS once. Sample Diluent Concentrate 2 (R&D Systems) containing a phosphatase inhibitor (Roche) and a protease inhibitor (Roche) was added to the culture flask, and the cell lysate was collected with a scraper. From the collected cell lysate, a protein sample was obtained by centrifugation. The protein sample was subjected to protein determination, and the protein concentration was adjusted to a prescribed concentration. […] After the membrane was washed with TBS-T, the protein was detected using a SuperSignal West Dura Extended Duration Substrate (Thermo Fisher) with an Amersham Imager 600 lumino image analyzer (GE Healthcare). The molecular weight of the detected protein was confirmed with Precision Plus Protein Kaleidoscope Prestained Protein Standards (Bio-Rad). As shown in FIG. 4a) and 4b), endogenous RET (150 and 175 kDa) was not detected when the anti-pRET antibody or the anti-RET antibody was used. […] Additionally, as shown in FIG. 4c), endogenous DCTN1 was detected at around 150 kDa in the use of the anti-DCTN1 antibody. […]

[3] = system: DCTN1-RET fusion gene-expressing NIH/3T3 cells; assay: Cell growth inhibitory effect of siRNA, 3-dimensional cell culture; format: cell-based, mouse; details: 3-dimensional cell culture after siRNA treatment; no treatment 4.9 times, negative control siRNA 3.6 times; FIG. 8
Experimental: NIH/3T3 cells grow well under 2-dimensional cell culture conditions, but barely grow under 3-dimensional cell culture conditions. However, NIH/3T3 cells are also known to grow under 3-dimensional cell culture conditions when an oncogene is expressed in the cells. Thus, whether the DCTN1-RET fusion gene is an oncogene was confirmed using this character. DCTN1-RET fusion gene-expressing NIH/3T3 cells and NIH/3T3 cells were cultured at 37° C. in 5% CO2 in a 2-dimensional cell culture; and collected with trypsin, followed by counting the number of cells. To perform a 3-dimensional cell culture, a medium for 3-dimensional cell culture was prepared using an FCeM-series Preparation Kit (Nissan Chemical Industries, Ltd.), D-MEM (high glucose) (containing L-glutamine, phenol red, sodium pyruvate, and 1500 mg/L sodium hydrogen carbonate) (Wako), and newborn calf serum (NBCS) (Gibco). […] The day following seeding (day 1) and after 8 days from seeding (day 8), the luminescence level (counts per second: cps) was measured using a detection reagent for intracellular ATP luminescence (CellTiter-Glo 2.0 reagent, Promega) with a luminometer (EnSpire, PerkinElmer), and the result was determined to be the indicator for viable cell count. The cell growth rate was then calculated from the measurement result on day 1 and the measurement result on day 8 (N=3). […]
Subsequently, to confirm a cell growth inhibitory effect, cells were collected with trypsin from the wells without treatment and wells treated with siRNA, and the number of cells was counted. A 3-dimensional cell culture was then performed in the same manner as in Example 5, and on the day seeding was performed (day 0) and after 4 days from seeding (day 4), the number of viable cells was counted in the same manner as in Example 5. The growth rate of the cells was calculated from the measurement result on day 0 and the measurement result on day 4.

DCTN1-RET fusion protein = assay: Inhibition of DCTN1-RET fusion protein expression by siRNA (western blotting); format: cell-based, human; details: siRNA treatment overnight, DCTN1-RET fusion gene-expressing NIH/3T3 cells, FIG. 7

Row | Molecule | GI50 [1] | growth: number of cells on day 4 relative to day 0 [3] | expression of the DCTN1-RET fusion protein (DCTN1-RET fusion protein) | further results
1 | CCc1cc2c(cc1N1CCC(N3CCOCC3)CC1)C(C)(C)c1[nH]c3cc(C#N)ccc3c1C2=O [Alectinib] | > 1000 nM |  |  | 
2 | COc1cc2nccc(Oc3ccc(NC(=O)C4(C(=O)Nc5ccc(F)cc5)CC4)cc3)c2cc1OC [Cabozantinib] | 91.1 nM |  |  | 
3 | COCc1ccc(NC(=O)c2c(C#CCN3CCOCC3)n(C3(C)CC3)c3ncnc(N)c23)cc1 [Compound 6, 4-amino-N-[4-(methoxymethyl)phenyl]-7-(1-methylcyclopropyl)-6-(3-morpholinopro-1-pyn-1-yl)-7H-pyrrolo[2,3-d]pyrimidine-5-carboxamide] | 3.6 nM |  |  | 
4 | COc1cc2nccc(Oc3ccc(NC(=O)NC4CC4)c(Cl)c3)c2cc1C(N)=O [Lenvatinib] | 50.3 nM |  |  | phosphorylated RET levels [2]: notably decreased; growth of DCTN1-RET fusion gene-expressing NIH/3T3 cells ([1]; result in words, as shown in Table 7): inhibited the growth
5 | COc1cc2c(Nc3ccc(Br)cc3F)ncnc2cc1OCC1CCN(C)CC1 [Vandetanib] | 68.7 nM |  |  | 
6 | CACAUGUCAUCAAAUUGUATT (CACAUGUCAUCAAAUUGUANN; listed as RNA, chemistry not given here) [RET siRNA1, siRNA targeting human RET] |  | about 2.0 times | inhibited | 
7 | CCACUGCUACCACAAGUUUTT (CCACUGCUACCACAAGUUUNN; listed as RNA, chemistry not given here) [RET siRNA3, siRNA targeting human RET] |  | 3.7 times | not inhibited | 
8 | GGAUUGAAAACAAACUCUATT (GGAUUGAAAACAAACUCUANN; listed as RNA, chemistry not given here) [RET siRNA2, siRNA targeting human RET] |  | ~2.4 times | inhibited | 
